# Source: US20220160718A1, “COMPOSITIONS AND METHODS OF TREATING CANCER” (Bristol-Myers Squibb Company, priority 2018, published 2022)
# T1: mouse PD-1 (Mus musculus, UniProt Q02242)
# T1 construct: expressed in transfected cells; host or cells: CHO cells
# T1 sequence (Q02242 25-288): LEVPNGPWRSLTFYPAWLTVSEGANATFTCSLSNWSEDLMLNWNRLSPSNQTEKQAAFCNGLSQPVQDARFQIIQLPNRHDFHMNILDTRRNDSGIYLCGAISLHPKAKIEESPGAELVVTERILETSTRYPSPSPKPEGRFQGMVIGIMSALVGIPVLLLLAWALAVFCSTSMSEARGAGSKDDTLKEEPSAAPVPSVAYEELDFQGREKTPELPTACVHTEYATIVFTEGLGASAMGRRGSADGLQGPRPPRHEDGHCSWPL
# Assays:
# [1] = test system: Mouse colon tumor MC38 cells; assay: Mouse colon tumor (MC38) model, anti-tumor efficacy; type: in vivo
# Method: (§1) Female C57BL/6 mice from Charles River Laboratories (Raleigh, N.C.) were received in house at age 6-8 weeks and acclimated for 3-7 days prior to implant. Mouse colon tumor MC38 cells were implanted subcutaneously at a concentration of 1×10^7 cells/mL, 0.1 mL per injection, using a 1 mL tuberculin syringe with 25 g needle.
# On Day 6 post implant, mice were randomized and sorted into groups with 10 mice per group. […] Antibody B was administered i.p. every 4 days for a total of 3 doses.
# (§2) Tumors and group body weights were weighed and measured twice weekly until tumors reached a volume of approximately 1500 mm^3. Animals were euthanized if the tumor reached a volume greater than approximately 1500 mm^3 or appeared ulcerated. Mean, median and/or survival plots as well as number of tumor-free mice were calculated to determine efficacy.
# [2] = test system: Mouse colon tumor CT26 cells; assay: Mouse colon tumor (CT26) model, anti-tumor efficacy; type: in vivo
# Method: as §1, with “BALB/C” for “C57BL/6”, “ENVIGO (Frederick, Md.)” for “Charles River Laboratories (Raleigh, N.C.)”, “implantation.” for “implant.”, “CT26” for “MC38”
# On Day 10 post implant, mice were randomized and sorted into groups with 10 mice per group. […] Antibody B was administered i.p. every 4 days for a total of 3 doses.
# as §2
# human CCR2 [3] = target: T2, human CCR2 (Homo sapiens, UniProt P41597); assay: Human CCR2-mediated CD11b integrin upregulation in whole blood; type: cell-based; conditions: human pharmacology, MCP-1 10 nM, read-out: CCR2 Potency, ligand-induced integrin upregulation in whole blood
# Method: A CCR2-dependent CD11b upregulation assay was established with human whole blood. […] The reactions were incubated for 30 minutes at 37° C. […] The samples were then incubated for 30 minutes on ice in the dark. […] Data acquisition and analysis were performed using CellQuestPro™ software. A sequential gating strategy was used to analyze the CD14high CD11b+ monocyte population. […] A similar procedure for mouse CCR5 was adopted except that MIP-1beta (50 nM) was used as the ligand.
# human CCR5 [4] = target: T3, human CCR5 (Homo sapiens, UniProt P51681); assay: Human CCR5-mediated calcium flux in HT1080/CCR5 cells; type: cell-based; conditions: human pharmacology, MIP-1beta 50 nM, read-out: CCR5 Potency, ligand-induced calcium flux in cells
# Method: (§3) All samples were tested in duplicate.
# Mouse PK of Compound C = type: in vivo
# human CCR5 [5] = target: T3, human CCR5; assay: Human CCR5-mediated CD11b integrin upregulation in whole blood; type: cell-based; parameters: established with human whole blood; from tissue; host or cells: human whole blood; conditions: human pharmacology, MIP-1beta 50 nM, read-out: CCR5 Potency, ligand-induced integrin upregulation in whole blood
# human CCR2 [6] = target: T2, human CCR2; assay: Human CCR2-mediated calcium flux in THP-1 cells; type: cell-based; parameters: established with the human monocytic cell line, THP-1; endogenous in cells; host or cells: THP-1 human monocytic cell line; conditions: human pharmacology, human MCP-1 10 nM, read-out: CCR2 Potency, ligand-induced calcium flux in cells
# Method: as §3
# mouse CCR2 = target: T4, mouse CCR2 (Mus musculus, UniProt P51683); assay: Mouse CCR2 potency (assay not specified)
# T4 construct: WEHI-274.1 mouse monocyte line; endogenous in cells; host or cells: WEHI-274.1 mouse monocyte line
# human CCR5 [7] = target: T3, human CCR5; assay: Inhibition of 125I-MIP-1beta binding to human T cells (human CCR5); parameters: hPBMCs and human T cells were isolated from human leukopak; endogenous in cells; host or cells: human T cells isolated from human leukopak; conditions: human pharmacology, 125I-human MIP-1beta, read-out: CCR5 Potency, binding on CCR5-expressing cells (displacing 125I-labelled ligand)
# Method: All conditions were tested in duplicate.
# mouse PD-1 [8] = target: T1, mouse PD-1; assay: Blocking binding of PD-L2 to mouse PD-1 on CHO transfectants; conditions: mouse potency; mouse PD-L2, CHO mouse PD-1; read-out: Blocking PD-L2 binding to PD1-expressing cells for IC50
# Method: CHO transfectants stably expressing human and mouse PD-1 were pre-incubated with titrated mAbs against human and mouse PD-1, respectively, followed by addition of PD-L2-Fc at 15 μg/ml. Cell-bound PD-L2-Fc was detected with a FITC-conjugated secondary to human IgG Fc.
# mouse PD-1 [9] = target: T1, mouse PD-1; assay: Blocking binding of PD-L1 to mouse PD-1 on CHO transfectants; conditions: mouse potency; mouse PD-L1, CHO mouse PD-1; read-out: Blocking PD-L1 binding to PD1-expressing cells for IC50
# Method: CHO transfectants stably expressing human and mouse PD-1 were pre-incubated with titrated mAbs against human and mouse PD-1, respectively, followed by addition of PD-L1-Fc at 2 μg/mL. Cell-bound PD-L1-Fc was detected with a FITC-conjugated secondary to human IgG Fcγ.
# [10] = Tolerability in CT26 tumor-bearing mice; type: in vivo; conditions: CT26 model; alone or in combination
# Method: as §2
# [11] = Tolerability in MC38 tumor-bearing mice; type: in vivo; conditions: MC38 model; alone or in combination
# Method: as §2
# mouse PD-1 [12] = target: T1, mouse PD-1; assay: Direct binding of anti-PD-1 mAb to mouse PD-1 on CHO transfectants; conditions: mouse potency; mouse PD1-expressing CHO cells
# Method: Assays for Direct Binding of Anti-PD-1 Monoclonal Antibody (mAb) to PD1 Stably Expressed on CHO Transfectants
# mAbs against human and mouse PD-1 were serially diluted and incubated with CHO cell transfectants stably expressing human and mouse PD-1, respectively, followed by detection with a FITC-conjugated secondary to mouse IgG Fcγ.
# T3 sequence (P51681 whole entry): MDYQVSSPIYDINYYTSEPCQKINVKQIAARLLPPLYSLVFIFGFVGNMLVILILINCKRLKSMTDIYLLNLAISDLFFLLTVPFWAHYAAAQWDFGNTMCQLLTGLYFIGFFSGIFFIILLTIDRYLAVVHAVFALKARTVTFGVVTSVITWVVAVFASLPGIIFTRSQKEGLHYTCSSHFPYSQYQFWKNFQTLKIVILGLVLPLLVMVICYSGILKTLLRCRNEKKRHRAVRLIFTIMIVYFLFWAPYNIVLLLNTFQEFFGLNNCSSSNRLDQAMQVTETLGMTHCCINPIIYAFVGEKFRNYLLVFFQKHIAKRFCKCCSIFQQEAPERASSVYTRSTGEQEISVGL
# T2 sequence (P41597 whole entry): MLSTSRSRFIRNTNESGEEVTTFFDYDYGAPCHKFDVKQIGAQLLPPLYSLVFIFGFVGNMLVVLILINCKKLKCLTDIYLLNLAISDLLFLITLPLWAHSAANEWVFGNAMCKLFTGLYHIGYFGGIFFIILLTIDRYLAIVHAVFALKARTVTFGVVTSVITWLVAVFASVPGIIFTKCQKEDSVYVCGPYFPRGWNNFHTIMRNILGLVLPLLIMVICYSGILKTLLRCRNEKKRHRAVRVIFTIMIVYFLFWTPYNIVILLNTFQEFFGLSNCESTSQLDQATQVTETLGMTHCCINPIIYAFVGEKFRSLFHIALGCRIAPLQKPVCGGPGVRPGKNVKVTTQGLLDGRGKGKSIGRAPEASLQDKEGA
# T4 sequence (P51683 whole entry): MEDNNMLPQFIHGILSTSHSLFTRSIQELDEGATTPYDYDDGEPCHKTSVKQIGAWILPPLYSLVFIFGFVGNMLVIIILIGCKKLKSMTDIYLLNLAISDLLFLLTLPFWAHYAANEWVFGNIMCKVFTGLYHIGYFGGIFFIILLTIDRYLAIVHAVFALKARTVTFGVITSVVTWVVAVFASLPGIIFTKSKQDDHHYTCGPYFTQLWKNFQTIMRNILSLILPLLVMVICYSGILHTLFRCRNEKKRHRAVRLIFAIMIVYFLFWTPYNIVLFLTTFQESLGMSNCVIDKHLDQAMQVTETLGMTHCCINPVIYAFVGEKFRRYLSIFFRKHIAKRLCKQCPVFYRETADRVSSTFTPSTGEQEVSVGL
molecule,measurement,setting,value
"CCC[C@@H]1C[C@H](N(C)C(C)C)CC[C@@H]1N1CC[C@H](Nc2ncnc3ccc(C(F)(F)F)cc23)C1=O [Compound A, (S)-1-((1S,2R,4R)-4-(isopropyl(methyl)amino)-2-propylcyclohexyl)-3-((6-(trifluoromethyl)quinazolin-4-yl)amino)pyrrolidin-2-one]",Tumor-free mice,"[1]; MC38 Study #1, Compound A 25 mg/kg PO BID 28 days alone",0/10
same,Tumor-free mice,"[1]; MC38 Study #1, Compound A 50 mg/kg PO BID 28 days alone",0/10
same,Tumor-free mice,"[1]; MC38 Study #1, Compound A 100 mg/kg PO BID 28 days alone",0/10
same,Tumor-free mice,"[1]; MC38 Study #2, Compound A 6.25 mg/kg PO BID 28 days alone",0/10
same,Tumor-free mice,"[1]; MC38 Study #2, Compound A 50 mg/kg PO BID 28 days alone",0/10
same,Tumor-free mice,[2]; Compound A 12.5 mg/kg PO BID 28 days alone,0/10
same,Tumor-free mice,[2]; Compound A 25 mg/kg PO BID 28 days alone,0/10
same,Tumor-free mice,[2]; Compound A 50 mg/kg PO BID 28 days alone,0/10
"CC(=O)N[C@@H]1C[C@H](NC(C)(C)C)CC[C@@H]1N1CC[C@H](Nc2ncnc3cc(C(C)(C)C)nn23)C1=O [Compound C, N-((1R,2S,5R)-5-(tert-butylamino)-2-((S)-3-(7-tert-butylpyrazolo[1,5-a][1,3,5]triazin-4-ylamino)-2-oxopyrrolidin-1-yl)cyclohexyl)acetamide]",IC50,human CCR2 [3],4.8 nM
same,IC50,human CCR5 [4],2 nM
same,mouse PK,Mouse PK of Compound C,poor
same,IC50,human CCR5 [5],5.7 nM
same,IC50,human CCR2 [6],2.9 nM
same,mouse CCR2 potency,mouse CCR2,poor
same,IC50,human CCR5 [7],3.6 nM
"Antibody B: anti-mouse PD-1 antibody generated by murinizing the Fc tail of 4H2; contains a mouse IgG1 D265A; SEQ ID NO: 1 and 2 (protein, Antibody B Light chain variable; Antibody B heavy chain variable) light: DTVLTQSPALAVSLGQRVTISCKASETVSSSMYSYIHWYQQKPGQQPKLLIYRASNLESGVPARFSGSGSGTDFTLTIDPVEADDVATYFCQQSWNPWTFGGGTKLELKRADAAPTVSIFPPSSEQLTSGGASVVCFLNNFYPKDINVKWKIDGSERQNGVLNSWTDQDSKDSTYSMSSTLTLTKDEYERHNSYTCEATHKTSTSPIVKSFNRNEC heavy: QVQLKESGPGLVQPSQTLSLTCTVSGFSLTSYNVHWVRQPPGKGLEWMGGMRYNEDTSYNSALKSRLSISRDTSKNQVFLKMNSLQTDDTGTYYCTRDAVYGGYGGWFAYWGQGTLVTVSSAKTTPPSVYPLAPGSAAQTNSMVTLGCLVKGYFPEPVTVTWNSGSLSSGVHTFPAVLQSDLYTLSSSVTVPSSTWPSETVTCNVAHPASSTKVDKKIVPRDCGCKPCICTVPEVSSVFIFPPKPKDVLTITLTPKVTCVVVDISKDDPEVQFSWFVDDVEVHTAQTQPREEQFNSTFRSVSELPIMHQDWLNGKEFKCRVNSAAFPAPIEKTISKTKGRPKAPQVYTIPPPKEQMAKDKVSLTCMITDFFPEDITVEWQWNGQPAENYKNTQPIMDTDGSYFVYSKLNVQKSNWEAGNTFTCSVLHEGLHNHHTEKSLSHSPGK",Tumor-free mice,"[1]; MC38 Study #1, Antibody B 10 mg/kg i.p., 3 doses, alone",1/10
same,Tumor-free mice,"[1]; MC38 Study #2, Antibody B 10 mg/kg, 3 doses, alone",0/10
same,IC50,mouse PD-1 [8],4.9 nM
same,IC50,mouse PD-1 [9],3.6 nM
same,tolerability,[10],well tolerated
same,Tumor-free mice,"[2]; Antibody B 10 mg/kg, 3 doses, alone",0/10
same,tolerability,[11],well tolerated
same,EC50,mouse PD-1 [12],2.9 nM
